Source: EP4610269A1, “UROKINASE PLASMINOGEN ACTIVATOR SURFACE RECEPTOR (UPAR) LIGANDS FOR DIAGNOSTIC OR THERAPEUTIC USE” (3B Pharmaceuticals GmbH, priority 2024, dated 2025)
Read-outs that look alike come from different tables or passages of the source. Where a SMILES comes first, the peptide text is derived from it. Bridges are numbered along the chain shown (N, C = ends). [ ]: non-standard residue; d: D form. The star is where a group is joined. DOTA(In) = O=C1CN2CCN3CCN(CC(=O)*)CCN(CC2)CC(=O)[O][In]([O]1)[O]C(=O)C3; DOTA = O=C(O)CN1CCN(CC(=O)O)CCN(CC(=O)*)CCN(CC(=O)O)CC1; Phe(4-NO2) = N[C@@H](Cc1ccc([N+](=O)[O-])cc1)C(=O)O; Phe(4-Cl) = N[C@@H](Cc1ccc(Cl)cc1)C(=O)O; Pro(cis-4-F) = O=C(O)[C@@H]1C[C@H](F)CN1; Hyp = O=C(O)[C@@H]1C[C@@H](O)CN1; Cit = NC(=O)NCCC[C@H](N)C(=O)O; Butoxycarbonyl = CCCCOC(=O)*; Chg = N[C@H](C(=O)O)C1CCCCC1; Nva = CCC[C@H](N)C(=O)O; Pentanoyl = CCCCC(=O)*

Key:
human uPAR (uPAR-Fc) = molecular target: T1, human uPAR (uPAR-Fc) (Homo sapiens, UniProt Q03405); test: Surface plasmon resonance (SPR) assay, single cycle kinetics; format: binding; details: pKD category for uPAR SPR activity assay, uPAR-Fc on Protein A-Chip, 25°C; for Kd: read-out: pKD CAT (converted)
T1 construct: comprising amino acids Leu23-Arg303 according to UniProt entry Q03405.1; purchased R&D Systems 10378-UK-100
T1 sequence (Q03405 23-303): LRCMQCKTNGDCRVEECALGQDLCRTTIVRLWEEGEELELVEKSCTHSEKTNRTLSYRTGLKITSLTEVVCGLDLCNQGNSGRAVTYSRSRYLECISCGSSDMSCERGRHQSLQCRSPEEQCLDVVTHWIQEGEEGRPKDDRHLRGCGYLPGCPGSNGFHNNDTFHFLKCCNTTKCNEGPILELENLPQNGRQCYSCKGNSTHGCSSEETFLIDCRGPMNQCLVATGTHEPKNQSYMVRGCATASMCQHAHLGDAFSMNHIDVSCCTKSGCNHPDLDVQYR
Description: Surface plasmon resonance (SPR) is an optical technique used to measure molecular interactions in real time. SPR occur when plane-polarized light hits a metal film under total internal reflection conditions. SPR signal is directly dependent on the refractive index of the medium on the sensor chip. In an SPR experiment, one molecule (i.e. uPAR) is immobilized on a sensor chip and binding to a second molecule (i.e. test compounds) is measured under flow. The binding of the compound on the surface changes the refractive index. In responses the reflection angle changes as compounds bind and dissociate on the immobilized protein on the surface. This response is measured in resonance units (RU). The RUs are proportional to the number of molecules bound to the surface. […] Kinetic binding constants and equilibrium binding constants can be derived from the sensorgrams.
Surface plasmon resonance (SPR) studies were performed using a Biacore™ T200 or S200 SPR system (Cytiva, formerly GE Life Sciences) to assess binding of compounds to recombinant uPAR protein.
In this example recombinant protein comprising the extracellular domains of human uPAR (uPAR-Fc, R&D Systems, CAT 10378-UK-100, comprising amino acids Leu23-Arg303 according to UniProt entry Q03405.1 and Fc region of human IgG1 at the C-terminus) was immobilized on a Protein A-Chip (Cytiva, CAT 29127555) according to the supplier's instructions. uPAR-Fc was diluted in Running Buffer (10 mM HEPES, 150 mM NaCl, 50 µM EDTA, 0.1% DMSO, 0.05% Tween-20, pH 7.4) to a final concentration of 100 nM and then flushed over the Protein A-Chip to immobilized ~2000 RUs.
Stock solutions of test compounds were prepared by dissolving each compound in DMSO. DMSO stock solution were diluted 1: 1000 in Running Buffer without DMSO. Further sequential dilutions were made with Running Buffer containing 0.1% DMSO. SPR binding analyses were performed in Single Cycle Kinetic (SCK) mode at 25°C. Flow cell without immobilized uPAR-Fc served as reference flow cell. The chip was regenerated with 10 mM Glycine, pH 1,5 to remove the uPAR-Fc from the chip surface after each SCK run. After every three SCK measurements, a blank run with Running Buffer instead of test compound was included to correct for baseline drifts (double reference substraction method). Table 11: SPR protocol steps for SCK with uPAR-Fc immobilized on a Protein A-Chip.
For each test compound, SPR raw data sensorgrams were recorded using the Biacore™ T200 or S200 control software. Sensorgrams were processed and analyzed with the Biacore™ Insight Evaluation software. […] The reference subtracted sensorgram for each test compound was further corrected for baseline drift by subtracting the sensorgram of a reference subtracted blank run (Running Buffer only). The dissociation constant (KD) was calculated from the double reference subtracted sensorgrams using the 1:1 Langmuir binding model. The pKD value (negative decadic logarithm of dissociation constant) was calculated using Microsoft Excel.

[1] = molecular target: T2, uPAR-expressing HEC-265 human endometrial adenocarcinoma cells (Homo sapiens, UniProt Q03405); test: Competitive FACS binding assay; details: pIC50 category of FACS binding
T2 construct: Cell surface uPAR-expressing HEC-265 human endometrial adenocarcinoma cells; host or cells: HEC-265
T2 sequence (Q03405 23-335): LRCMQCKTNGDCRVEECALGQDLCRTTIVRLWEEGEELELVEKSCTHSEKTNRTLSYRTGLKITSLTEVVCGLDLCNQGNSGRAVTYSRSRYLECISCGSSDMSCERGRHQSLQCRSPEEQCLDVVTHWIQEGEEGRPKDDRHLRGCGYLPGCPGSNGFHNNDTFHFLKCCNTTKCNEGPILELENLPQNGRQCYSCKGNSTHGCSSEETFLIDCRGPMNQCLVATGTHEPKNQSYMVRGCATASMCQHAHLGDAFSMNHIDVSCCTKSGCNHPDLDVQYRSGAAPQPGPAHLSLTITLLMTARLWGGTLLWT
Description: In order to determine binding of compounds according to the present invention to uPAR-expressing cells, a competitive FACS binding assay was established.
Cell surface uPAR-expressing HEC-265 human endometrial adenocarcinoma cells (Japanese Collection of Research Bioresources, #JCRB1142) were cultured in MEM Eagle with stable glutamine (Pan Biotech, #P04-09500) including 15% fetal bovine serum (Pan Biotech, #P30-3306) and 100 U/ml penicillin and 100 µg/mL streptomycin (Pan Biotech, #P06-07100). Cells were detached with Cell Dissociation Buffer (Thermo Scientific, #13151014) and washed in FACS buffer (PBS (Pan Biotech, #P04-36500) including 1% BSA (SeraCare, #AP-4510-80). Cells were diluted in FACS buffer to a final concentration of 500.000 cells per ml and 200 µl of the cell suspension are transferred to a u-shaped non-binding 96-well plate (Greiner Bio-One, #650901).
For IC50 determination, cells were incubated with 10 nM Bio--Ttds--Ttds--Ttds--Ttds-D-Cha-FsrYLWS-NH2) in the presence of increasing concentrations of non-labeled test compounds at 4°C for 1 hour. Cells were washed twice in FACS buffer. An additional incubation step with 1 µg/mL APC-Streptavidin (Miltenyi; #130-106-791) in 50 µL FACS buffer for 30 minutes on ice was performed followed by two washes with FACS buffer. Cells were resuspended in 200 µl FACS buffer and analyzed in an Attune NxT flow cytometer. Median fluorescence intensities (APC channel) were calculated by Attune NxT software and plotted against peptide concentrations. Four parameter logistic (4PL) curve fitting and pIC50 calculations were performed using ActivityBase software.

**Q.** Which results are given for “Pent-[Cys-Cit-Lys(InDOTA)-Tyr-Phe-Pro-Hyp-Ile-Nva-Cys]-NH2 (Pentanoyl-C[Cit]K(DOTA(In))YFP[Hyp]I[Nva]C-NH2; disulfide 1-10; not fully specified; also: In(III) complexed by DOTA) [UPAR-182]”?
**A.** pKD CAT (human uPAR (uPAR-Fc)): A (pKD values ≥ 8.8); pIC50 CAT [1]: A (pIC50 values ≥8.0)

**Q.** Which results are given for `CCCCC(=O)N[C@H]1CSSC[C@@H](C(N)=O)NC(=O)[C@H](CCC)NC(=O)[C@H]([C@@H](C)CC)NC(=O)[C@@H]2C[C@@H](O)CN2C(=O)[C@@H]2CCCN2C(=O)[C@H](Cc2ccccc2)NC(=O)[C@H](Cc2ccc([N+](=O)[O-])cc2)NC(=O)[C@H](CCCCNC(=O)CN2CCN(CC(=O)O)CCN(CC(=O)O)CCN(CC(=O)O)CC2)NC(=O)[C@H](CCCNC(N)=O)NC1=O` [UPAR-257, Pent-[Cys-Cit-Lys(DOTA)-Nif-Phe-Pro-Hyp-Ile-Nva-Cys]-NH2] (Pentanoyl-C[Cit]K(DOTA)[Phe(4-NO2)]FP[Hyp]I[Nva]C-NH2; disulfide 1-10)?
**A.** Kd (human uPAR (uPAR-Fc)): < 1.58 nM; IC50 [1]: ≤ 10 nM

**Q.** For `CCCCC(=O)N[C@H]1CSSC[C@@H](C(N)=O)NC(=O)[C@H](CCC)NC(=O)[C@H]([C@@H](C)CC)NC(=O)[C@@H]2C[C@@H](O)CN2C(=O)[C@@H]2CCCN2C(=O)[C@H](Cc2ccccc2)NC(=O)[C@H](Cc2ccc(O)cc2)NC(=O)[C@H](CCCCNC(=O)CN2CCN(CC(=O)O)CCN(CC(=O)O)CCN(CC(=O)O)CC2)NC(=O)[C@H](CC(N)=O)NC1=O` [UPAR-283, Pent-[Cys-Asn-Lys(DOTA)-Tyr-Phe-Pro-Hyp-Ile-Nva-Cys]-NH2] (Pentanoyl-CNK(DOTA)YFP[Hyp]I[Nva]C-NH2; disulfide 1-10), which Kd (human uPAR (uPAR-Fc)) is on record?
**A.** < 1.58 nM

**Q.** And the IC50 [1]?
**A.** ≤ 10 nM

**Q.** `CCCCC(=O)N[C@H]1CSSC[C@@H](C(N)=O)NC(=O)[C@H](CCC)NC(=O)[C@H]([C@@H](C)CC)NC(=O)[C@H](CC(C)C)NC(=O)[C@@H]2CCCN2C(=O)[C@H](Cc2ccccc2)NC(=O)[C@H](Cc2ccc(O)cc2)NC(=O)[C@H](CCC(N)=O)NC(=O)[C@H](CCCNC(=N)N)NC1=O` [UPAR-281, Pent-[Cys-Arg-Gln-Tyr-Phe-Pro-Leu-Ile-Nva-Cys]-NH2] (Pentanoyl-CRQYFPLI[Nva]C-NH2; disulfide 1-10) was tested. Which Kd (human uPAR (uPAR-Fc)) did it give?
**A.** < 1.58 nM

**Q.** And the IC50 [1]?
**A.** ≤ 10 nM

**Q.** How did the Kd (human uPAR (uPAR-Fc); single cycle kinetics) turn out when `CCC[C@@H]1NC(=O)[C@H]([C@@H](C)CC)NC(=O)[C@@H]2C[C@@H](O)CN2C(=O)[C@@H]2CCCN2C(=O)[C@H](Cc2ccccc2)NC(=O)[C@H](Cc2ccc(O)cc2)NC(=O)[C@H](CCC(N)=O)NC(=O)[C@H](CCCNC(=N)N)NC(=O)[C@@H](NC(=O)[C@H](Cc2ccccc2)NC(C)=O)CSSC[C@@H](C(N)=O)NC1=O` [UPAR-488, Ac-Phe-[Cys-Arg-Gln-Tyr-Phe-Pro-Hyp-Ile-Nva-Cys]-NH2] (Ac-FCRQYFP[Hyp]I[Nva]C-NH2; disulfide 2-11) was run?
**A.** < 1.58 nM

**Q.** Which results are given for `CCCCOC(=O)N[C@H]1CSSC[C@@H](C(N)=O)NC(=O)[C@H](CCC)NC(=O)[C@H](C2CCCCC2)NC(=O)[C@@H]2C[C@@H](O)CN2C(=O)[C@@H]2C[C@H](F)CN2C(=O)[C@H](Cc2ccc(Cl)cc2)NC(=O)[C@H](Cc2ccc(O)cc2)NC(=O)[C@H](CCCCNC(=O)CN2CCN(CC(=O)O)CCN(CC(=O)O)CCN(CC(=O)O)CC2)NC(=O)[C@H](CCCNC(N)=O)NC1=O` [UPAR-476, Butoc-[Cys-Cit-Lys(DOTA)-Tyr-Pcf-4Cfp-Hyp-Chg-Nva-Cys]-NH2] (Butoxycarbonyl-C[Cit]K(DOTA)Y[Phe(4-Cl)][Pro(cis-4-F)][Hyp][Chg][Nva]C-NH2; disulfide 1-10)?
**A.** Kd (human uPAR (uPAR-Fc); single cycle kinetics): < 1.58 nM; IC50 [1]: ≤ 10 nM
